Experimental data: ChEMBL document CHEMBL1150019, “Synthesis and antitumor activity of novel cyclopropapyrroloindole (CPI) derivatives bearing bis(methoxycarbonyl) groups” (Bioorg Med Chem Lett, 1997)
≈ marks a conversion by molar mass, not a printed value.

Experiments:
[1] = test system: P388; assay: Tested in vitro for cytotoxicity as concentration required to inhibit 50 percent growth of P388 murine leukemia cells; format: functional, cell-based; settings: Mus musculus
[2] = test system: Mus musculus; assay: In vivo antitumor activity against P388 murine leukemia as percentage increase in life span as compared with the untreated at a dose of 0.125 mg/kg administered intraperitoneally; format: functional; settings: P388, ip, route intraperitoneal
[3] = test system: Mus musculus; assay: In vivo antitumor activity against P388 murine leukemia as percentage increase in life span as compared with the untreated at a dose of 0.063 mg/kg administered intraperitoneally; format: functional; settings: P388, ip, route intraperitoneal
[4] = test system: Mus musculus; assay: In vivo antitumor activity against P388 murine leukemia as percentage increase in life span as compared with the untreated at a dose of 1 mg/kg administered intraperitoneally; format: functional; settings: P388, ip, route intraperitoneal
[5] = test system: Mus musculus; assay: In vivo antitumor activity against P388 murine leukemia as percentage increase in life span as compared with the untreated at a dose of 0.5 mg/kg administered intraperitoneally; format: functional; settings: P388, ip, route intraperitoneal
[6] = test system: Mus musculus; assay: In vivo antitumor activity against P388 murine leukemia as percentage increase in life span as compared with the untreated at a dose of 0.25 mg/kg administered intraperitoneally; format: functional; settings: P388, ip, route intraperitoneal
[7] = test system: Mus musculus; assay: In vivo antitumor activity against P388 murine leukemia as percentage increase in life span as compared with the untreated at a dose of 0.625 mg/kg administered intraperitoneally; format: functional; settings: P388, ip, route intraperitoneal

SMILES | IC50 [1] [ng/mL] | ILS at 0.125 mg/kg [2] [%] | other results
COC(=O)c1[nH]c2c(c1C(=O)OC)C13CC1CN(C(=O)c1cc4cc(OC)ccc4[nH]1)C3=CC2=O (stereo not drawn) | 0.63 (≈ 1.33 nM) | 49 | –
COC(=O)c1[nH]c2c(c1C(=O)OC)C13CC1CN(C(=O)c1cc4cc(OC)c(OC)c(OC)c4[nH]1)C3=CC2=O (stereo not drawn) | 0.74 (≈ 1.38 nM) | – | ILS at 0.063 mg/kg [3]: 43%
COC(=O)c1[nH]c2c(O)cc3c(c2c1C(=O)OC)C(CCl)CN3C(=O)c1cc2cc(OC)ccc2[nH]1 (stereo not drawn) | 0.27 (≈ 0.527 nM) | – | ILS at 1 mg/kg [4]: 43%
COC(=O)c1[nH]c2c(O)cc3c(c2c1C(=O)OC)C(CCl)CN3C(=O)c1cc2cc(NC(=O)c3cc4ccccc4[nH]3)ccc2[nH]1 (stereo not drawn) | 0.24 (≈ 0.375 nM) | – | ILS at 0.5 mg/kg [5]: 90%
COC(=O)c1c(C)[nH]c2c(O)cc3c(c12)[C@H](CCl)CN3C(=O)c1cc2cc(OC)c(OC)c(OC)c2[nH]1 | 0.22 (≈ 0.417 nM) | – | ILS at 0.25 mg/kg [6]: 74%
COC(=O)c1[nH]c2c(c1C(=O)OC)C13CC1CN(C(=O)c1cc4cc(NC(=O)c5cc6ccccc6o5)ccc4[nH]1)C3=CC2=O (stereo not drawn) | – | 79 | –
COC(=O)c1[nH]c2c(O)cc3c(c2c1C(=O)OC)C(CCl)CN3C(=O)c1cc2cc(OC)c(OC)c(OC)c2[nH]1 (stereo not drawn) | 0.31 (≈ 0.542 nM) | – | ILS at 1 mg/kg [4]: 73%
COC(=O)c1[nH]c2c(O)cc3c(c2c1C(=O)OC)C(CCl)CN3C(=O)c1cc2cc(NC(=O)c3cc4ccccc4o3)ccc2[nH]1 (stereo not drawn) | 0.32 (≈ 0.499 nM) | – | ILS at 0.625 mg/kg [7]: 115%
COC(=O)c1[nH]c2c(c1C(=O)OC)C13CC1CN(C(=O)c1cc4cc(NC(=O)c5cc6ccccc6[nH]5)ccc4[nH]1)C3=CC2=O (stereo not drawn) | – | 102 | –
COC(=O)c1c(C)[nH]c2c1[C@@]13CC1CN(C(=O)c1cc4cc(OC)c(OC)c(OC)c4[nH]1)C3=CC2=O (mixture of isomers) | 0.34 | 80 | –
